Reference: the kinase profiling compilation of Christmann-Franck et al. (2016)

Assays:
Experiment in all cases: radiometric filter-binding kinase assay, Kinase HotSpot
Conditions in all cases: compound 0.5 µM; ATP 10 µM
ABL1 (human) = ABL1 (human) (UniProt P00519)
ACVR1 (human) = ACVR1 (human) (UniProt Q04771)
[1] = tested on: ARAF (human), P10398 [Y301D/Y302D]
AURKA (human) = AURKA (human) (UniProt O14965)
BRAF (human) = BRAF (human) (UniProt P15056)
CDC42BPB (human) = CDC42BPB (human) (UniProt Q9Y5S2)
CDK5 CDK5R1 p35 (human) = CDK5 CDK5R1 p35 (human) (UniProt Q00535+Q15078)
CHUK (human) = CHUK (human) (UniProt O15111)
Sequence of CHUK (human) (O15111 whole entry, looked up): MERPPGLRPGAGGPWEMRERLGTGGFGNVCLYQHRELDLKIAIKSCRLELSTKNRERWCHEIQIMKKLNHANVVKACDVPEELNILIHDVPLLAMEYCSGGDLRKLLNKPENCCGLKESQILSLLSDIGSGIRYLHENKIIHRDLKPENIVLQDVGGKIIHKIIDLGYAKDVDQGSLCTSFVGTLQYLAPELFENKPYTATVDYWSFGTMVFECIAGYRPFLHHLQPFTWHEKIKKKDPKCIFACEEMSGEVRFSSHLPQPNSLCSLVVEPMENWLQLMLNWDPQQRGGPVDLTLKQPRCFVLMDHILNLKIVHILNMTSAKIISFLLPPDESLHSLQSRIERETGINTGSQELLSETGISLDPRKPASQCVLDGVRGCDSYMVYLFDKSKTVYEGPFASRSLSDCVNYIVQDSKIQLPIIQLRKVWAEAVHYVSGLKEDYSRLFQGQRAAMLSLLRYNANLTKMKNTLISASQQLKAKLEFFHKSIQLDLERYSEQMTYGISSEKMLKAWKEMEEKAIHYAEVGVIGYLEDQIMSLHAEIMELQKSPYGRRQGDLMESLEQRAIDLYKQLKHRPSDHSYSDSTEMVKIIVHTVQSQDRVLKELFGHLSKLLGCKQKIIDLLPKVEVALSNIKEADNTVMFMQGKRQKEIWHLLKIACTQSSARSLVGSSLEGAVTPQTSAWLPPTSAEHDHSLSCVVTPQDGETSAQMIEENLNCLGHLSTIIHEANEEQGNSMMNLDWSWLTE

CLK2 (human) = CLK2 (human) (UniProt P49760)
CSNK1E (human) = CSNK1E (human) (UniProt P49674)
Sequence of CSNK1E (human) (P49674 whole entry, looked up): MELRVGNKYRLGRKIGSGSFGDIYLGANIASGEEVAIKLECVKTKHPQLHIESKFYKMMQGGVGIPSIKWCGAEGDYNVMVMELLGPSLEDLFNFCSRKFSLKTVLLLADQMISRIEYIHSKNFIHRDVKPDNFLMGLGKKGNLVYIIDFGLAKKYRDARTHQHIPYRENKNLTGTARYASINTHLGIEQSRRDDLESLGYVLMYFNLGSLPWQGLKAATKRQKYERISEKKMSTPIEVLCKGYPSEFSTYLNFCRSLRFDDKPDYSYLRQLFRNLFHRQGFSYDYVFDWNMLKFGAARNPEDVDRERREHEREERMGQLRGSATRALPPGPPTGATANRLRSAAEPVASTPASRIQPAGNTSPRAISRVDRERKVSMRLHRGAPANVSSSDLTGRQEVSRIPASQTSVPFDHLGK

CSNK2A2 (human) = CSNK2A2 (human) (UniProt P19784)
DCLK2 (human) = DCLK2 (human) (UniProt Q8N568)
EGFR (human) = EGFR (human) (UniProt P00533)
EPHB4 (human) = EPHB4 (human) (UniProt P54760)
ERBB2 (human) = ERBB2 (human) (UniProt P04626)
FES (human) = FES (human) (UniProt P07332)
FGFR1 (human) = FGFR1 (human) (UniProt P11362)
GRK6 (human) = GRK6 (human) (UniProt P43250)
MAP3K10 (human) = MAP3K10 (human) (UniProt Q02779)
MAPK1 (human) = MAPK1 (human) (UniProt P28482)
MAPK12 (human) = MAPK12 (human) (UniProt P53778)
MARK2 (human) = MARK2 (human) (UniProt Q7KZI7)
Sequence of MARK2 (human) (Q7KZI7 whole entry, looked up): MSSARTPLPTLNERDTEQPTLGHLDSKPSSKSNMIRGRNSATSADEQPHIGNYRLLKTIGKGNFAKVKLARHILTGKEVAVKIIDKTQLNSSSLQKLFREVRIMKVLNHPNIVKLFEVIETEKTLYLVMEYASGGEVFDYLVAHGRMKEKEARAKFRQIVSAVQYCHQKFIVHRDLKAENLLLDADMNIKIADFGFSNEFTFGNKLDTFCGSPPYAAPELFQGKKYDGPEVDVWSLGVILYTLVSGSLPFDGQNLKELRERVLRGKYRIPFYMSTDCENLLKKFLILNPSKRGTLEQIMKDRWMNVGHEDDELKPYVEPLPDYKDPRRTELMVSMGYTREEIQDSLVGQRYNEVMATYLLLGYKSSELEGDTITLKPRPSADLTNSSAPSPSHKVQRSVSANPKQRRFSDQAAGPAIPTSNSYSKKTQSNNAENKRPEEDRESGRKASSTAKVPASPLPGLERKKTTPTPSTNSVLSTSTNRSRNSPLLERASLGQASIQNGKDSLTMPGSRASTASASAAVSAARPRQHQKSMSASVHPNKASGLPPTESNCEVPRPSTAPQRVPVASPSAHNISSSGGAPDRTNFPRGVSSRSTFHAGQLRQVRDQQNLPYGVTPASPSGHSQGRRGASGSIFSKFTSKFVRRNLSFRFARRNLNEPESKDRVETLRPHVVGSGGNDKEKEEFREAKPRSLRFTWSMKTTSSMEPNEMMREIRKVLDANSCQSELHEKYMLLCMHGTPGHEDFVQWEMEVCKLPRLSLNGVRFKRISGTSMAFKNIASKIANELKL

MYLK (human) = MYLK (human) (UniProt Q15746)
NEK7 (human) = NEK7 (human) (UniProt Q8TDX7)
NUAK2 (human) = NUAK2 (human) (UniProt Q9H093)
PAK1 (human) = PAK1 (human) (UniProt Q13153)
Sequence of PAK1 (human) (Q13153 whole entry, looked up): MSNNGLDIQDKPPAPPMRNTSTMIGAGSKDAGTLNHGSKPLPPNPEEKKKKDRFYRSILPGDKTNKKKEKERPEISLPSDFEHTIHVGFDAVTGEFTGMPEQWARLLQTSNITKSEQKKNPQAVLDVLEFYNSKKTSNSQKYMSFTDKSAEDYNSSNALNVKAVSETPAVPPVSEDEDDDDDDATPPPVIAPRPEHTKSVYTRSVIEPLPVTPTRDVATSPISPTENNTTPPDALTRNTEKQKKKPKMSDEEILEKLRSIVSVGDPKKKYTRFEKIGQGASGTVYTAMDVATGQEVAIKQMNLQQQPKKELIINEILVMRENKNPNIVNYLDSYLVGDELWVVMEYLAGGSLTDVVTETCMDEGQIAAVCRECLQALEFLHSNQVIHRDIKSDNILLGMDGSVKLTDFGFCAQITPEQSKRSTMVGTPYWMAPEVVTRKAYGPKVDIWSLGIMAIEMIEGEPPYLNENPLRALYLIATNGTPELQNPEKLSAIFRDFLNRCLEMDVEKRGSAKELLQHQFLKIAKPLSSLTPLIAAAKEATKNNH

PBK (human) = PBK (human) (UniProt Q96KB5)
PDGFRB (human) = PDGFRB (human) (UniProt P09619)
Sequence of PDGFRB (human) (P09619 whole entry, looked up): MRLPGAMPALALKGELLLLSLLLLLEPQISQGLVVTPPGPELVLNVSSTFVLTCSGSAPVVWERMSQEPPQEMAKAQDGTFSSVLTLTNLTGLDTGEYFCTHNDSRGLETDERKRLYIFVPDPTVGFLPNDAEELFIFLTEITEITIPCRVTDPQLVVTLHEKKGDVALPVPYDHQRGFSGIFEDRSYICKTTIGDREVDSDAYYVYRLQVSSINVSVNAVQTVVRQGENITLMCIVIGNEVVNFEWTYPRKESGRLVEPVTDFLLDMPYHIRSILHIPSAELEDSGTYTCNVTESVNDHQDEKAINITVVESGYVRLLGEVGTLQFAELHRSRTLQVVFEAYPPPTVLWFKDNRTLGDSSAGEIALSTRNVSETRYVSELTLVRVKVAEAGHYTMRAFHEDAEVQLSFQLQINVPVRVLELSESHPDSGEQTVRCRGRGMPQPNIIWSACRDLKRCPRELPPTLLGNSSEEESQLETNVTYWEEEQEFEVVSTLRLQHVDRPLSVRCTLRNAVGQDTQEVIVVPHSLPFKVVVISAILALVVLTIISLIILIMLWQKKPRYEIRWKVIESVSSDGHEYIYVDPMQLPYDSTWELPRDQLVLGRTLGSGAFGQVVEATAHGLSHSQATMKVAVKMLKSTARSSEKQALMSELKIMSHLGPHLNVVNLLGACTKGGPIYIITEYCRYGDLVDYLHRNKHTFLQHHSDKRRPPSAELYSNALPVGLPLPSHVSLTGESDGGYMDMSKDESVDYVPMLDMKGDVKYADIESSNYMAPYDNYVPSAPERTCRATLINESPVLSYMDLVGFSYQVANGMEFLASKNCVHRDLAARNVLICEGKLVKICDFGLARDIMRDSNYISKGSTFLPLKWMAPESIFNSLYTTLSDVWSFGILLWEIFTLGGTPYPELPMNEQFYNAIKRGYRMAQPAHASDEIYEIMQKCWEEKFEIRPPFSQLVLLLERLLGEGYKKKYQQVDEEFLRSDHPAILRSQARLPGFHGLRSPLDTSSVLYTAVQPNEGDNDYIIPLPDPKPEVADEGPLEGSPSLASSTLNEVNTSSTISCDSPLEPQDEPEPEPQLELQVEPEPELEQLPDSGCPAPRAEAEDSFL

PLK1 (human) = PLK1 (human) (UniProt P53350)
PLK2 (human) = PLK2 (human) (UniProt Q9NYY3)
PRKCE (human) = PRKCE (human) (UniProt Q02156)
PRKD2 (human) = PRKD2 (human) (UniProt Q9BZL6)
RAF1 (human) = RAF1 (human) (UniProt P04049)
Sequence of RAF1 (human) (P04049 whole entry, looked up): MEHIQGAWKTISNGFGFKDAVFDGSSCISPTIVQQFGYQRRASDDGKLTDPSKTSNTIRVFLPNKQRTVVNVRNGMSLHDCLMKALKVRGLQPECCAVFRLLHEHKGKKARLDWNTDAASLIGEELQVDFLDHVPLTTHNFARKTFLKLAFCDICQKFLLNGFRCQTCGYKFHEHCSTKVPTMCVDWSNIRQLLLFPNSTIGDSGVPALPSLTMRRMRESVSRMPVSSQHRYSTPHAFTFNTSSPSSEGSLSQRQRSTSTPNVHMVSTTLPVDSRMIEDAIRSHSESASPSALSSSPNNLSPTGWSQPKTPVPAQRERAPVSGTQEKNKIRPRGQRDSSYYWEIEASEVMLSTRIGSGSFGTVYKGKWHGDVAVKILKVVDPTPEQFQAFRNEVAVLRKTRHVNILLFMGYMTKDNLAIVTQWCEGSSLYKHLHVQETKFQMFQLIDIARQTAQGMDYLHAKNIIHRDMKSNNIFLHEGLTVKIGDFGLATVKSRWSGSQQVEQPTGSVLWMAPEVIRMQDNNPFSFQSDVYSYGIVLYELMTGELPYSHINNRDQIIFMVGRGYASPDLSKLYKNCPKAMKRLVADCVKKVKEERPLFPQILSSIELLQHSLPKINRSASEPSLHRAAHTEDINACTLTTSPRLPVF

STK4 (human) = STK4 (human) (UniProt Q13043)
WEE1 (human) = WEE1 (human) (UniProt P30291)
EPHA6 (human) = EPHA6 (human) (UniProt Q9UF33)
MYO3B (human) = MYO3B (human) (UniProt Q8WXR4)
PRKACG (human) = PRKACG (human) (UniProt P22612)
STK38 (human) = STK38 (human) (UniProt Q15208)
TLK2 (human) = TLK2 (human) (UniProt Q86UE8)
ULK3 (human) = ULK3 (human) (UniProt Q6PHR2)

Sequence of BRAF (human) (P15056 whole entry, looked up): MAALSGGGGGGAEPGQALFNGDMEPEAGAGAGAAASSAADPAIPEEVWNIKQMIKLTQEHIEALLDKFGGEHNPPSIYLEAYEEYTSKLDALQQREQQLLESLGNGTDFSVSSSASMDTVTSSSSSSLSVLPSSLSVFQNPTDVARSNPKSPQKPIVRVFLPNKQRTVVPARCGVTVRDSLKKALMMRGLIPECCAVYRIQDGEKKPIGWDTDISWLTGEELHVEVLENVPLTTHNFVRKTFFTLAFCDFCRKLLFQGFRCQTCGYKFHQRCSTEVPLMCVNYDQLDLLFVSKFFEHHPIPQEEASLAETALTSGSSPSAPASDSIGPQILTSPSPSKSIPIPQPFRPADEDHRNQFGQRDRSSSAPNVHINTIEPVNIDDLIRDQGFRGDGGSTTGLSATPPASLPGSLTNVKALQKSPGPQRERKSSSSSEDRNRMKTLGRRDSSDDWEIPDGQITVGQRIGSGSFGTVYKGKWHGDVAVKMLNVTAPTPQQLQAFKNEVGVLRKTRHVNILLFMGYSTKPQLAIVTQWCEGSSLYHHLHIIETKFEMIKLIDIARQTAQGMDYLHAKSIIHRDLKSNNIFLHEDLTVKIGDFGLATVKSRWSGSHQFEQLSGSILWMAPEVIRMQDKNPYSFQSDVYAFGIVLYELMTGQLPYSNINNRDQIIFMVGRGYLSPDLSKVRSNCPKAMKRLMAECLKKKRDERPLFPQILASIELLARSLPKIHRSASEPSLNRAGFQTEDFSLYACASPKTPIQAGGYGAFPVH

Row | Structure (SMILES) | residual activity (ACVR1 (human)) [%] | residual activity (AURKA (human)) [%] | residual activity (CDC42BPB (human)) [%] | residual activity (CDK5 CDK5R1 p35 (human)) [%] | residual activity (CHUK (human)) [%] | residual activity (CLK2 (human)) [%] | residual activity (CSNK1E (human)) [%] | residual activity (DCLK2 (human)) [%] | residual activity (ERBB2 (human)) [%] | residual activity (FES (human)) [%] | residual activity (GRK6 (human)) [%] | residual activity (MAP3K10 (human)) [%] | residual activity (MAPK1 (human)) [%] | residual activity (MAPK12 (human)) [%] | residual activity (MARK2 (human)) [%] | residual activity (NUAK2 (human)) [%] | residual activity (PAK1 (human)) [%] | residual activity (PBK (human)) [%] | residual activity (PLK1 (human)) [%] | residual activity (PLK2 (human)) [%] | further results
1 | CC(C)n1cnc2c(Nc3cccc(Cl)c3)nc(NCCO)nc21 | 80.3 | 108 | 109 | 22.7 | 96.1 | 25 | 65.4 | 97.8 | 96.2 | 66.2 | 88.8 | 90.3 | 107 | 102 | 98.7 | 89.8 | 97.1 | 101 | 44.1 | 95.9 | residual activity (ABL1 (human)): 73.3%; residual activity [1]: 107%; residual activity (BRAF (human)): 97%; residual activity (CSNK2A2 (human)): 91.8%; residual activity (EGFR (human)): 91.5%; residual activity (EPHB4 (human)): 82%; residual activity (FGFR1 (human)): 84.2%; residual activity (MYLK (human)): 87.8%; residual activity (NEK7 (human)): 93.9%; residual activity (PDGFRB (human)): 94.7%; residual activity (PRKCE (human)): 93.6%; residual activity (PRKD2 (human)): 88.1%; residual activity (RAF1 (human)): 105%; residual activity (STK4 (human)): 93.1%; residual activity (WEE1 (human)): 98.9%
2 | Nc1n[nH]c2nnc(-c3c(-c4ccccc4)nn4ccccc34)cc12 | 107 | 101 | 93.4 | 105 | 97.5 | 94.9 | 80.9 | 100 | 105 | 97.8 | 99.3 | 90.7 | 87.2 | 104 | 104 | 87.3 | 91.9 | 95 | 98.1 | 107 | residual activity (ABL1 (human)): 83.3%; residual activity [1]: 98.4%; residual activity (BRAF (human)): 95.7%; residual activity (CSNK2A2 (human)): 93.4%; residual activity (EGFR (human)): 83.9%; residual activity (EPHB4 (human)): 98.5%; residual activity (FGFR1 (human)): 94.7%; residual activity (MYLK (human)): 98.3%; residual activity (NEK7 (human)): 95.3%; residual activity (PDGFRB (human)): 114%; residual activity (PRKCE (human)): 72.7%; residual activity (PRKD2 (human)): 54.1%; residual activity (RAF1 (human)): 95.6%; residual activity (STK4 (human)): 99.1%; residual activity (WEE1 (human)): 92.4%
3 | CCN1/C(=C/C(C)=O)Sc2ccc(OC)cc21 | 88.1 | 108 | 114 | 91.1 | 89.9 | 25.9 | 60.1 | 97.9 | 99.9 | 101 | 103 | 95 | 97.1 | 99.8 | 89.5 | 107 | 92.9 | 94.8 | 97 | 100 | residual activity (ABL1 (human)): 92.9%; residual activity [1]: 128%; residual activity (BRAF (human)): 95.3%; residual activity (CSNK2A2 (human)): 89.7%; residual activity (EGFR (human)): 99.1%; residual activity (EPHB4 (human)): 92.4%; residual activity (MYLK (human)): 93.7%; residual activity (PDGFRB (human)): 107%; residual activity (PRKCE (human)): 95.2%; residual activity (PRKD2 (human)): 69.4%; residual activity (RAF1 (human)): 95.9%; residual activity (STK4 (human)): 97.8%; residual activity (WEE1 (human)): 102%
4 | C#Cc1cccc(Nc2ncnc3cc(OCCOC)c(OCCOC)cc23)c1 | 101 | 75.3 | 98.5 | 108 | 94.2 | 93.4 | 98.2 | 102 | 52.8 | 105 | 99.2 | 108 | 116 | 97.8 | 129 | 95.3 | 109 | 104 | 100 | 104 | residual activity (EPHA6 (human)): 40.4%; residual activity (FGFR1 (human)): 99.1%; residual activity (MYO3B (human)): 84.4%; residual activity (NEK7 (human)): 97.4%; residual activity (PRKACG (human)): 108%; residual activity (PRKD2 (human)): 85.9%; residual activity (RAF1 (human)): 93.7%; residual activity (STK38 (human)): 101%; residual activity (STK4 (human)): 97.4%; residual activity (TLK2 (human)): 85.9%; residual activity (ULK3 (human)): 105%; residual activity (WEE1 (human)): 95.2%
